Where a name gives a salt, the structure may show the parent alone.

Common to all, as to assay type: in vivo, human
The subject of series [1] is left upper lobe lung adenocarcinoma (T4N3M1a, stage IV). Nature of the series: Case report, stage IV lung adenocarcinoma (Example 6). To be noted: for sum of the diameter of two measurable target lesions: baseline 58 mm. How it is done:
A retired person, smoking for 30 years (20 cigarettes/day), underwent thyroid adenoma resection 10 years ago. […] From Aug. 1, 2013 to Sep. […] From Dec. 26, 2013 to Jan. […] On Jan. […] On Feb.
From Feb. 28, 2014, the capsule of dihydrochloride of compound I was taken orally at 12 mg once daily with repeated treatment cycles (treatment given for consecutive two weeks followed by one week of rest is one treatment cycle).

Series [2] concerns non-small cell lung cancer squamous cell carcinoma. Description: Case report, non-small cell lung cancer squamous cell carcinoma (Example 8). How it is done: EML4-ALK fusion gene had no mutation, EGFR gene had no mutation by gene detection.
From Mar. 26, 2013 to Jun. 5, 2013, the patient was treated with cisplatin and gemcitabine chemotherapy for 4 cycles, and the best efficacy was SD. After the end of the chemotherapy, they were treated with the local radiotherapy of the lung for 1 cycle, during which the adverse reactions was light. From Sep. 9, 2013 to Oct. 6, 2013, the patient was treated with cisplatin and gemcitabine chemotherapy for 2 cycles. December 2013, disease was found progression by review of CT. From Mar. 24, 2014, the patient was treated with docetaxel chemotherapy for 1 cycle. […] On Dec. […] Double lungs had multiple pulmonary bullae, which changed little than before; 3. Double lungs had inflammation, the scope of which was smaller than before; 4. Left clavicle, mediastinal and right hilar had multiple lymph nodes, which were slightly larger than before. From Jan. 7, 2015 to Jan. […] On Mar. […] On Mar. 6, 2015, the patient was treated with oral Tiggio treatment. […] On Jun.
From Jun. 4, 2015, the patient received dihydrochloride of compound I capsule treatment that one cycle plan was 12 mg dose once, q.d., and continuous medication for 2 weeks, and then suspended medication for 1 week. On Jun.

Series [3] concerns patients with non-small cell lung cancer. Nature of the series: Randomized, double-blind, placebo-controlled trial in non-small cell lung cancer patients (Example 3). To be noted: for progression-free survival (PFS, month) Mean / progression-free survival (PFS, month) P25 / progression-free survival (PFS, month) P50 / progression-free survival (PFS, month) P75: 12 mg once daily, two weeks on, one week rest. From the text: (§1) In this paper, progression-free survival P25 refers to the time that 75% of the patients who participated in the disease had no progress in disease; Progressive survival P50 refers to the time that 50% of the patients who participated in the disease had no progress in disease; Progression-free survival P75 refers to the time that 25% of the patients who participated in the disease had no progress in disease; the progression-free survival was the mean value of the progression-free survival of the patient who participated in the results of statistics.
Randomized, double-blind, placebo-controlled trials were performed in patients with measurable lesions which were pathologically diagnosedas non-small cell lung cancer, who had received second-line or higher-line therapy, or those who were intolerable to aforementioned treatment, and who had been treated with other cytotoxic drugs, radiotherapy or surgery for more than four weeks. In this study, efficacy of the capsules of dihydrochloride of compound I was initially evaluated against placebo in the treatment of patients with non-small cell lung cancer. The primary outcome of the evaluation was progression-free survival (PFS). 117 patients with non-small cell lung cancer enrolled in this study, whose age was between 18-70. Among them, 57 patients were randomized into placebo group and 60 patients randomized into dihydrochloride of compound I group.
The above-mentioned eligible non-small cell lung cancer patients were treated with dihydrochloride of compound I/placebo for clinical trials. They were administered 12 mg/0 mg of compound I/placebo individually once daily for consecutive two weeks followed by one-week rest from administration, namely the period of a cycle regimen was three weeks (21 days), those who were ineligible for continuous therapy or whose disease were progressive disease (PD) according to the reassessment were excluded from the medication.
Results: A total of 117 patients with non-small cell lung cancer were enrolled in the study, including 57 patients randomized into placebo group and 60 patients randomized into dihydrochloride of compound I group. 43 patients in placebo group and 30 patients in dihydrochloride of compound I group were involved in data statistics, the remaining patients who dropped out or excluded from the study or those were still in follow-up were not included in the statistics.

The subject of series [4] is patients with lung adenocarcinoma. Nature of the series: Randomized, double-blind, placebo-controlled trial in lung adenocarcinoma patients (Example 4).
Source text: as §1
Randomized, double-blind, placebo-controlled trials were performed in patients with measurable lesions which were pathologically diagnosedas lung adenocarcinoma, who had received second-line or higher-line therapy, or those who were intolerable to the aforementioned treatment, and who had been treated with other cytotoxic drugs, radiotherapy or surgery for more than four weeks. In this study, efficacy of the capsules of dihydrochloride of compound I was initially evaluated against placebo in the treatment of patients with lung adenocarcinoma. The primary outcome of the evaluation was progression-free survival (PFS). 104 patients with lung adenocarcinoma enrolled in this study, whose age was between 18-70. Among them, 50 patients were randomized into placebo group and 54 patients randomized into dihydrochloride of compound I group.
The above-mentioned eligible lung adenocarcinoma patients were treated with dihydrochloride of compound I/placebo for clinical trials. They were administered 12 mg/0 mg of compound I/placebo individually once daily for consecutive two weeks followed by one-week rest from administration, namely the period of a cycle regimen was three weeks (21 days), those who were ineligible for continuous therapy or whose disease were progressive disease (PD) according to the reassessment were excluded from the medication.
Results: A total of 104 patients with lung adenocarcinoma were enrolled in the study, including 50 patients randomized into placebo group and 54 patients randomized into dihydrochloride of compound I group. 37 patients in placebo group and 30 patients in dihydrochloride of compound I group were involved in data statistics, the remaining patients who dropped out or excluded from the study or those were still in follow-up were not included in the statistics.

In series [5] the test system is right lower lung adenocarcinoma (T4N2M1b, stage IV). Description: Case report, stage IV lung adenocarcinoma (Example 5). The settings on record: for sum of the longest diameter of the two measurable lesions: baseline 45.7 mm.
Experimental: 3, 2013, the capsule of dihydrochloride of compound I was taken orally at 12 mg once daily with repeated treatment cycles (treatment given for consecutive two weeks followed by one week of rest is one treatment cycle). Treatment toxicities were assessed at 4-week follow-up, and the number of blood cells and blood chemistry were analyzed every two or three weeks, treatment response was assessed based on CT scan as well.
Series [6] relates to non-small cell lung cancer. Description: Case report, non-small cell lung cancer, EGFR gene no mutation (Example 7). From the text:
From Jun. […] From Oct. […] On Jan. […] From Jan. […] On Jul.

Setting [7] is: lung adenocarcinoma, 12 mg once daily, two weeks on, one week rest.
Where [8] appears, read: after ten treatment cycles (210 days).
Setting [9] is: after three-week administration.

On to “gemcitabine/cisplatin [reference compound]”, for which the “outcome of prior therapy (medical history)” value in series [1] (one treatment cycle each) is “unsatisfactory”.

Take `CC(=O)O[C@@]12CO[C@@H]1C[C@H](O)[C@@]1(C)C(=O)[C@H](O)C3=C(C)[C@@H](OC(=O)[C@H](O)[C@@H](NC(=O)OC(C)(C)C)c4ccccc4)C[C@@](O)([C@@H](OC(=O)c4ccccc4)[C@H]21)C3(C)C` [docetaxel, reference compound]: the “adverse reactions after prior chemotherapy (medical history)” value in series [2] (in vivo) is “bone marrow suppression, oral infection, pneumonia appeared”.

Consider `COc1cc2c(Oc3ccc4[nH]c(C)cc4c3F)ccnc2cc1OCC1(N)CC1` [dihydrochloride of compound I, 1-[[[4-(4-fluoro-2-methyl-1H-indol-5-yl)oxy-6-methoxyquinolin-7-yl]oxy]methyl]cyclopropylamine dihydrochloride], for which the “progression-free survival (PFS, month) Mean” value in series [3] (age > 60) is on record as 5.84 month; in series [3] (age ≤ 60), 4.48 month; in series [4] (setting [7]), 4.77 month. The “progression-free survival (PFS, month) P25” value turned out to be 2.83 month in series [3] (age > 60), 2.77 month in series [3] (age ≤ 60) and 2.77 month in series [4] (setting [7]). Moreover, the entries for the “progression-free survival (PFS, month) P50” value in series [3] (age > 60), in series [3] (age ≤ 60) and in series [4] (setting [7]) were 6.40 month, 4.30 month and 4.33 month, respectively. In addition, the “progression-free survival (PFS, month) P75” value is 8.30 month in series [3] (age > 60), 6.17 month in series [3] (age ≤ 60) and 6.87 month in series [4] (setting [7]). Besides, the “effect on progression-free survival versus placebo” value in series [3] (patients with non-small cell lung cancer) and in series [4] (patients with lung adenocarcinoma) was “significantly prolong progression-free survival” throughout. Also, the target lesion sum in series [2] (Jul. 15, 2015) was 63 mm; in series [2] (Oct. 16, 2015), 56 mm; in series [2] (Sep. 8, 2015), 57 mm. Moreover, the “reduction of total target lesions versus baseline” value in series [2] (after 1 cycle (Jun. 25, 2015)) came to 10 mm. The compound further showed a total target lesions in series [2] (after 1 cycle (Jun. 25, 2015)) of 66 mm. The “tolerability of adverse reactions” value in series [2] (until application date) and in series [6] (until application date) was “could tolerate adverse reactions” in each case. Moreover, the results for the tolerance result in series [5] (12 mg once daily orally) and in series [1] (12 mg once daily orally) were “well tolerated” and “generally well tolerated”, respectively. For the same compound, the “reduction of sum of the longest diameter” value in series [5] (setting [8]) is given as 43.1%; in series [5] (after treatment for 6 weeks) it was 31.22%. The “sum of the longest diameter of the two measurable lesions” value in series [5] (setting [8]) came out at 26 mm; in series [5] (after treatment for 6 weeks, 12 mg once daily orally) it was 31.43 mm. In addition, the “blood routine examinations including the number of blood cells” value in series [5] (during treatment) is given as “not significantly altered”. Besides, the “left temporal lobe nodules, head enhancement CT” value in series [6] (Aug. 20, 2015) is “slightly smaller than baseline”. The “lesion in anterior segment of left upper lobe lung, diameter” value was 10 mm in series [1] (after 15-week administration); 10 mm in series [1] (after nine-week administration); 18 mm in series [1] (after three-week administration, baseline 37 mm); 14 mm in series [1] (six weeks administration); 10 mm in series [1] (twelve weeks administration). The “lesion in mediastinal lymph node, diameter” value stood at 15 mm in series [1] (after 15-week administration); 16 mm in series [1] (after nine-week administration); 18 mm in series [1] (after three-week administration, baseline 21 mm); 15 mm in series [1] (six weeks administration); 16 mm in series [1] (twelve weeks administration). The “reduction of sum of target lesions” value is recorded as 56.9% in series [1] (after 15-week administration); 55.2% in series [1] (after nine-week administration); 37.9% in series [1] (setting [9]); 50% in series [1] (six weeks administration); 55.2% in series [1] (twelve weeks administration). In addition, the “sum of the diameter of two measurable target lesions” value was 25 mm in series [1] (after 15-week administration); 26 mm in series [1] (after nine-week administration); 36 mm in series [1] (setting [9]); 29 mm in series [1] (six weeks administration); 26 mm in series [1] (twelve weeks administration). Moreover, in series [1] (during treatment), the blood changes result is “not significant”. Besides, the heart toxicity result in series [1] (during treatment) is recorded as “no heart toxicity related to the drug”. For the same compound, the “progression of non-target lesions and new lesions” value in series [1] (during treatment) is listed as “not observed”. The “response and clinical performance” value in series [1] (given for 279 days, 14th treatment cycle) is “sustained response against tumor and good clinical performance”.

The values above are taken from patent US10307412B2, “Quinoline derivative against non-small cell lung cancer” (CHIA TAI TIANQING PHARMACEUTICAL GROUP CO., LTD., priority 2014, dated 2019).
